Molecular target: T1, human GR (Homo sapiens, UniProt P04150)
T1 construct: naturally expresses the human GR; endogenous in cells
T1 sequence (P04150 1-777): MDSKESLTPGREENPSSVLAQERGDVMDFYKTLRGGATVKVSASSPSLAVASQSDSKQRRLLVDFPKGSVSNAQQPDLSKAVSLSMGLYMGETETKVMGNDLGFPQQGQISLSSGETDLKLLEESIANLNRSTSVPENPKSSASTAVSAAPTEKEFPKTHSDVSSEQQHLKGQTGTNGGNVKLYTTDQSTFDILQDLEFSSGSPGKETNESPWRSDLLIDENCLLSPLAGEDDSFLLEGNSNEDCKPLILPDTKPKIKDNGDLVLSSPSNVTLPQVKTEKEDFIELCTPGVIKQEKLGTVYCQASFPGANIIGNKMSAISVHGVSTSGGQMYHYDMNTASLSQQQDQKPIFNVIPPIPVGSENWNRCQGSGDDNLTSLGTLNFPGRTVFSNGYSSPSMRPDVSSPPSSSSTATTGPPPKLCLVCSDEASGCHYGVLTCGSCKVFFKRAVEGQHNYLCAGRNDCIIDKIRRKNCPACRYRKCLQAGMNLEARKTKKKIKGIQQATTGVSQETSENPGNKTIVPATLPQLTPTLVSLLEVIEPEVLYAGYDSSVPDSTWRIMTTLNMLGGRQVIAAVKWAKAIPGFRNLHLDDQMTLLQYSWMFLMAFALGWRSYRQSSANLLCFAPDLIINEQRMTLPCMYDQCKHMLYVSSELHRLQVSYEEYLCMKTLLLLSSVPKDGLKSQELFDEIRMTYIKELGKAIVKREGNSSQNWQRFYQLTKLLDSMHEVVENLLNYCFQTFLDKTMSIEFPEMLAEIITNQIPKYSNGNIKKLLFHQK
Test: Transrepression assay (GITAR), TNFα-β-lactamase reporter in U937 cells
Type: cell-based
Conditions: for EC50: IP = inflection point; for Emax: U-937, U937 cells
Method in brief: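 U937 cells stably carrying TNFα promoter–β-lactamase, endogenous GR, preincubated with compound 30–45 min at 37° C., then stimulated with 5 ng/ml PMA plus 100 ng/ml LPS for ~18 h. CCF2-AM read-out; repression by 100 nM dexamethasone set as 100%.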

[1] = activity repressed by 100 nM dexamethasone alone set as 100%

Compound	EC50 (U937 cells)	Emax [1]	Transrepression U937 Cells GITAR Emax (%) (U937 cells, activity repressed by 100 nM dexamethasone alone set as 100%)
CC(C)(CO)NC(=O)c1cc(F)cnc1CC[C@]1(O)CCC2=Cc3c(cnn3-c3ccc(F)cc3)C[C@@]21C1CC1 [Example 48, 2-{2-[(4aR,5R)-4a-Cyclopropyl-1-(4-fluorophenyl)-5-hydroxy-1,4,4a,5,6,7-hexahydrocyclopenta[f]indazol-5-yl]ethyl}-5-fluoro-N-(1-hydroxy-2-methylpropan-2-yl)pyridine-3-carboxamide]	9 nM	87%	
N#Cc1ccnc(CC[C@]2(O)CCC3=Cc4c(cnn4-c4ccc(F)cc4)C[C@@]32C2CC2)c1 [Example 35, 2-{2-[(4aR,5R)-4a-Cyclopropyl-1-(4-fluorophenyl)-5-hydroxy-1,4,4a,5,6,7-hexahydrocyclopenta[f]indazol-5-yl]ethyl}pyridine-4-carbonitrile]	73 nM	87%	
CC[C@]12Cc3cnn(-c4ccc(F)cc4)c3C=C1CC[C@@]2(O)CC(O)c1cc(C#N)ccn1 (stereo partly drawn) [Example 72, 2-{2-[(4aS,5R)-4a-Ethyl-1-(4-fluorophenyl)-5-hydroxy-1,4,4a,5,6,7-hexahydrocyclopenta[f]indazol-5-yl]-1-hydroxyethyl}pyridine-4-carbonitrile]	228 nM	51%	
CS(=O)(=O)c1ccccc1CC[C@]1(O)CCC2=Cc3c(cnn3-c3ccc(F)cc3)C[C@@]21C1CC1 [Example 58, (4aR,5R)-4a-Cyclopropyl-1-(4-fluorophenyl)-5-{2-[2-(methylsulfonyl)phenyl]ethyl}-1,4,4a,5,6,7-hexahydrocyclopenta[f]indazol-5-ol]	5 nM	88%	
CC[C@]12Cc3cnn(-c4ccc(F)cc4)c3C=C1CC[C@@]2(O)CCc1nccc(C2CC2)c1C(=O)OC [Example 41, Methyl 4-cyclopropyl-2-{2-[(4aS,5R)-4a-ethyl-1-(4-fluorophenyl)-5-hydroxy-1,4,4a,5,6,7-hexahydrocyclopenta[f]indazol-5-yl]ethyl}pyridine-3-carboxylate]	262 nM	79%	
CC[C@]12Cc3cnn(-c4ccc(F)cc4)c3C=C1CC[C@@]2(O)CCc1ccccc1S(C)(=O)=O [Example 42, (4aS,5R)-4a-Ethyl-1-(4-fluorophenyl)-5-{2-[2-(methylsulfonyl)phenyl]ethyl}-1,4,4a,5,6,7-hexahydrocyclopenta[f]indazol-5-ol]	11 nM	89%	
CC[C@]12Cc3cnn(-c4ccc(F)cc4)c3C=C1CC[C@@]2(O)CCc1cc(C)ccn1 [Example 33, (4aS,5R)-4a-Ethyl-1-(4-fluorophenyl)-5-[2-(4-methylpyridin-2-yl)ethyl]-1,4,4a,5,6,7-hexahydrocyclopenta[f]indazol-5-ol]	84 nM	82%	
CC(C)(CO)NC(=O)c1ccccc1CC[C@]1(O)CCC2=Cc3c(cnn3-c3ccc(F)cc3)C[C@@]21C1CC1 [Example 45, 2-{2-[(4aR,5R)-4a-Cyclopropyl-1-(4-fluorophenyl)-5-hydroxy-1,4,4a,5,6,7-hexahydrocyclopenta[f]indazol-5-yl]ethyl}-N-(1-hydroxy-2-methylpropan-2-yl)benzamide]	9 nM	85%	
OC(C[C@]1(O)CCC2=Cc3c(cnn3-c3ccc(F)cc3)C[C@@]21C1CC1)c1ccc(F)cn1 (single isomer, unassigned) [Example 79a]	167 nM	41%	
CC[C@]12Cc3cnn(-c4cccnc4)c3C=C1CC[C@@]2(O)CCc1cccc(F)c1C#N [Example 10, 2-{2-[(4aS,5R)-4a-Ethyl-5-hydroxy-1-(pyridin-3-yl)-1,4,4a,5,6,7-hexahydrocyclopenta[f]indazol-5-yl]ethyl}-6-fluorobenzonitrile]	113 nM	64%	
CC[C@]12Cc3cnn(-c4ccc(F)cc4)c3C=C1CC[C@@]2(O)CC(O)c1ccc(F)cn1 (single isomer, unassigned) [Example 69b]	94 nM		80%
NC(=O)c1c(C(F)(F)F)ccnc1CC[C@]1(O)CCC2=Cc3c(cnn3-c3ccc(F)cc3)C[C@@]21C1CC1 [Example 55, 2-{2-[(4aR,5R)-4a-Cyclopropyl-1-(4-fluorophenyl)-5-hydroxy-1,4,4a,5,6,7-hexahydrocyclopenta[f]indaozol-5-yl]ethyl}-4-(trifluoromethyl)pyridine-3-carboxamide]	2 nM	87%	
CC[C@]12Cc3cnn(-c4ccccc4)c3C=C1CC[C@@]2(O)CC(O)c1cc(C#N)ccn1 (stereo partly drawn) [Example 75, 2-{2-[(4aS,5R)-4a-Ethyl-5-hydroxy-1-phenyl-1,4,4a,5,6,7-hexahydrocyclopenta[f]indazol-5-yl]-1-hydroxyethyl}pyridine-4-carbonitrile]	235 nM	67%	
O=S(=O)(c1ccccc1CC[C@]1(O)CCC2=Cc3c(cnn3-c3ccc(F)cc3)C[C@@]21C1CC1)C1CC1 [Example 63, (4aR,5R)-4a-Cyclopropyl-5-{2-[2-(cyclopropylsulfonyl)phenyl]ethyl}-1-(4-fluorophenyl)-1,4,4a,5,6,7-hexahydrocyclopenta[f]indazol-5-ol]	127 nM	75%	
CC[C@]12Cc3cnn(-c4ccc(F)cc4)c3C=C1CC[C@@]2(O)CCc1ncccc1S(=O)(=O)C(C)C [Example 62, (4aS,5R)-4a-Ethyl-1-(4-fluorophenyl)-5-{2-[3-(propan-2-ylsulfonyl)pyridin-2-yl]ethyl}-1,4,4a,5,6,7-hexahydrocyclopenta[f]indazol-5-ol]	12 nM	85%	
CC[C@]12Cc3cnn(-c4ccc(F)cc4)c3C=C1CC[C@@]2(O)CC1OC(=O)c2ccccc21 (stereo partly drawn) [Example 71, 3-{[(4aS,5R)-4a-Ethyl-1-(4-fluorophenyl)-5-hydroxy-1,4,4a,5,6,7-hexahydrocyclopenta[f]indazol-5-yl]methyl}-2-benzofuran-1(3H)-one]	65 nM	74%	
CC[C@]12Cc3cnn(-c4ccc(F)cc4)c3C=C1CC[C@@]2(O)CCc1ncccc1C(N)=O [Example 52, 2-{2-[(4aS,5R)-4a-Ethyl-1-(4-fluorophenyl)-5-hydroxy-1,4,4a,5,6,7-hexahydrocyclopenta[f]indazol-5-yl]ethyl}pyridine-3-carboxamide]	53 nM	85%	
CC[C@]12Cc3cnn(-c4ccc(F)cc4)c3C=C1CC[C@@]2(O)CCc1cc(C(F)(F)F)ccn1 [Example 34, (4aS,5R)-4a-Ethyl-1-(4-fluorophenyl)-5-{2-[4-(trifluoromethyl)pyridin-2-yl]ethyl}-1,4,4a,5,6,7-hexahydrocyclopenta[f]indazol-5-ol]	125 nM	85%	
CC[C@]12Cc3cnn(-c4ccc(F)cc4)c3C=C1CC[C@@]2(O)CC(O)c1ncccc1Cl (stereo partly drawn) [Example 70, (4aS,5R)-5-[2-(3-Chloropyridin-2-yl)-2-hydroxyethyl]-4a-ethyl-1-(4-fluorophenyl)-1,4,4a,5,6,7-hexahydrocyclopenta[f]indazol-5-ol]	142 nM	79%	
CCS(=O)(=O)c1ccccc1CC[C@]1(O)CCC2=Cc3c(cnn3-c3ccc(F)cc3)C[C@@]21C1CC1 [Example 59, (4aR,5R)-4a-Cyclopropyl-5-{2-[2-(ethylsulfonyl)phenyl]ethyl}-1-(4-fluorophenyl)-1,4,4a,5,6,7-hexahydrocyclopenta[f]indazol-5-ol]	74 nM	88%	
O[C@@]1(CCc2cc(C(F)(F)F)ccn2)CCC2=Cc3c(cnn3-c3ccc(F)cc3)C[C@@]21C1CC1 [Example 32, (4aR,5R)-4a-Cyclopropyl-1-(4-fluorophenyl)-5-{2-[4-(trifluoromethyl)pyridin-2-yl]ethyl}-1,4,4a,5,6,7-hexahydrocyclopenta[f]indazol-5-ol]	266 nM	83%	
CC[C@]12Cc3cnn(-c4ccccc4)c3C=C1CC[C@@]2(O)CC(O)c1ccccn1 (single isomer, unassigned) [Example 67a]	217 nM	54%	
NC(=O)CNC(=O)c1cccnc1CC[C@]1(O)CCC2=Cc3c(cnn3-c3ccc(F)cc3)C[C@@]21C1CC1 [Example 43, N-(2-Amino-2-oxoethyl)-2-{2-[(4aR,5R)-4a-cyclopropyl-1-(4-fluorophenyl)-5-hydroxy-1,4,4a,5,6,7-hexahydrocyclopenta[f]indazol-5-yl]ethyl}pyridine-3-carboxamide]	52 nM	86%	
CC[C@]12Cc3cnn(-c4ccc(F)cc4)c3C=C1CC[C@@]2(O)CC(O)c1cncc(F)c1 (stereo partly drawn) [Example 73, (4aS,5R)-4a-Ethyl-1-(4-fluorophenyl)-5-[2-(5-fluoropyridin-3-yl)-2-hydroxyethyl]-1,4,4a,5,6,7-hexahydrocyclopenta[f]indazol-5-ol]	198 nM	71%	

— patent US20120214847A1, “2-[1-PHENYL-5-HYDROXY-4a-SUBSTITUTED-HEXAHYDROCYCLOPENTA[F]INDAZOL-5-YL]ETHYL PHENYL DERIVATIVES AS GLUCOCORTICOID RECEPTOR LIGANDS” (Merck Sharp & Dohme Corp., priority 2009, published 2012)
